Test results as given in US10485846B2, “Collagenase-derived peptides promote tissue regeneration and wound healing” (Tufts University, priority 2014, dated 2019).

Tests used:
[1] = system: adult human keratinocytes; test: Adult human keratinocyte proliferation (coulter counter cell count); format: cell-based; settings: FIG. 3B, PK vs. peptides
Experimental: Adult human keratinocytes were plated at low density in multi-well plates and treated with 10 nM peptides (FIG. 3A) or 1-100 nM peptides (FIG. 3B) every other day. At day 7 post-plating the cells were counted using a coulter counter. Cell proliferation relative to control (FIG. 3A) or absolute cell number grown (FIG. 3B) are shown. *statistical significance (p<0.05).
(§1) In our efforts aimed at characterizing the growth-promoting, migration-enhancing and angiogenesis-inducing activities embodied in SANTYL® collagenase Ointment and in an effort focused on contrasting the efficacy of collagenase vs. the newly-discovered SANTYL® collagenase API-derived bioactive wound healing peptide(s), we continue to perform a battery of pre-clinical tests and trials using the well-established models of injury and repair developed, here, at Tufts University School of Medicine and the Center for Innovations in Wound Healing Research. To these ends, we took advantage of the 2D and 3D injury/repair models developed to quantify cellular responses to injury. […] This is especially noteworthy since these peptides not only promote vascular endothelial growth but, adult human keratinocyte growth.

[2] = system: human microvascular endothelial cells; test: In vitro angiogenesis / tube formation on growth factor-reduced Matrigel; format: cell-based; settings: 100 nM peptide in Matrigel and media (FIG. 4)
Experimental: ECM-derived peptides were dissolved in growth factor-reduced Matrigel at 100 nM, the matrix was allowed to polymerize, human microvascular endothelial cells were plated either in control low serum containing media or media containing 100 nM peptides. Representative images of cells treated with endothelial ECM-derived peptides are shown.
Function-specific domains present within TSN1/2 and the newly-engineered “combinatorial” peptides present within TSN 10 are able to promote in vitro angiogenesis. TSN peptides promote morphogenesis and angiogenic activation by stimulating migration, proliferation and tube formation; peptide-stimulated endothelial tubes are more numerous, of greater length, having more branch points then control treated endothelial cell cultures.

[3] = system: human microvascular endothelial cells; test: Human microvascular endothelial cell proliferation (coulter counter cell count); format: cell-based; settings: for endothelial cell proliferation relative to control: 100 nM peptides every other day, counted day 5 post-plating (FIG. 2); for endothelial growth-promoting activity compared with fibroblast growth factor 2 (FGF2): FIG. 2
Experimental: Human microvascular endothelial cells were plated at low density in multi-well plates and treated with 100 nM peptides every other day. At day 5 post-plating the cells were counted using a coulter counter. Cell proliferation relative to control is shown. *statistical significance (p<0.05).
as §1

cranial cutaneous wounds = test: Cranial cutaneous excisional wound healing in cyclophosphamide-treated mice (impaired healing model); format: in vivo, Balb/c mice; settings: peptide in CMC applied daily days 1-5, day 6 post-injury; vs untreated control or collagenase (FIGS. 7-8)
Experimental: Balb/c mice were pre-treated with cyclophosphamide at 150 mg/kg 3 days prior to injury and with 100 mg/kg cyclophosphamide 1 day before injury. Cranial cutaneous wounds were created using 4 mm punch biopsy tool and immediately covered with adherent transparent dressing (TEGADERM™). The peptides were prepared fresh daily and injected under the dressing on days 1-5 post injury. On day 6 after wounding the animals were sacrificed according to Division of Laboratory Animal Medicine (DLAM) approved procedures. Wounds together with surrounding healthy tissues were excised, cut in half along the midline and either fixed in 4% phosphate buffered formaldehyde or frozen in OCT for further processing. […]
Wounds were created, treated as described in FIG. 6 and scored in a blind manner according to the grading described in Table 2. * indicates statistical significance of findings (p<0.05).
Wounds were created and treated as described in FIG. 1. Wound epithelialization was measured at day 6 post wounding. ** indicate statistical significance of findings (p<0.05). […]
Following cyclophosphamide treatment, animals were injured and then wounds treated/covered. Test entities were coded so that the nature of the experiment was blinded to the investigator; and, each specimen was evaluated and scored blindly according to the wound healing system shown in Table 2, prior to unmasking the experimental code. […]

[4] = system: adult human keratinocytes; test: Scratch wound closure / post-injury migration of keratinocyte monolayer; format: cell-based; settings: 10 nM peptide, monitored 0, 1, 3 and 5 hours post-injury (FIG. 5)
Experimental: Adult human keratinocytes were plated into glass-bottom well plates at high density. Scratch wounds were made in the cell monolayer 24 h post-plating. The peptides dissolved in keratinocyte growth media (10 nM) were applied immediately after wounding. Wound closure was monitored at 0, 1, 3 and 5 hours post-injury. Dashed line outlines the wounds. Representative images of wounds treated with TSN2 and TSN6 are shown.
Human epidermis-derived keratinocytes were plated at a post-confluent density prior to mechanical injury in the presence or absence of bioactive wound healing peptides or control entities.

Sequence	keratinocyte growth-promoting activity compared with PK SANTYL collagenase API [1]	in vitro angiogenesis (tube formation) [2]	endothelial cell proliferation relative to control [3]	endothelial growth-promoting activity compared with fibroblast growth factor 2 (FGF2) [3]	wound healing in vivo (wound score, Table 2 grading; wound closure) (cranial cutaneous wounds)	keratinocyte migration in response to scratch injury (wound closure) [4]
TGQSYNQYSQRPYLGVYVFK (listed as Homo sapiens) [TSN10, 20 aa combinatorial peptide; Combination of Thrombospondin and multimerin peptides]	completely accounting for the keratinocyte growth-promoting activity present within PK SANTYL collagenase API	markedly promoted in vitro angiogenesis	–	–	–	–
NFQGVQNRFVFGTP (listed as Homo sapiens) [TSN1, 14 aa peptide; origin Thrombospondin-1 Laminin G-like domain]	completely accounting for the keratinocyte growth-promoting activity present within PK SANTYL collagenase API	markedly promoted in vitro angiogenesis	stimulate human dermally-derived microvascular endothelial cell growth in vitro	exceed the growth-promoting activity embodied in fibroblast growth factor 2 (FGF2)	–	–
HSPDIQLQKGLTFEPIQIK (listed as Homo sapiens) [TSN6, 19 aa peptide; origin Multimerin-1 Coiled coil domain]	–	–	–	–	markedly stimulated to heal wounds	marked migration-enhancing activity
MENAELDVPIQSVFTR (listed as Homo sapiens) [TSN2, 16 aa peptide; origin Thrombospondin-1 N-terminal domain]	completely accounting for the keratinocyte growth-promoting activity present within PK SANTYL collagenase API	angiogenesis-inducing activity	stimulate human dermally-derived microvascular endothelial cell growth in vitro	exceed the growth-promoting activity embodied in fibroblast growth factor 2 (FGF2)	–	marked migration-enhancing activity
RPGPSPEGTGQSYNYR (listed as Homo sapiens) [TSN8, 16 aa peptide]	–	markedly promoted in vitro angiogenesis	–	–	–	–
